# Earlier results as cited in patent US10595479B2, “Induced mutagenesis” (Purdue Research Foundation, priority 2014, dated 2020).
# System: maize
# Settings: pollen EMS protocol in maize, tested molecularly
structure (smiles),measurement,value
"CCOS(C)(=O)=O [EMS, ethyl methanesulfonate]",density of mutations,about 2 mutations per Mb of DNA
